Assay [1] relates to harmful plants such as Sinapis alba, Chrysanthemum segetum, Avena sativa, Stellaria media, Echinochloa crus-galli, Lolium multiflorum, Setaria spp., Abutilon …. Kind of assay: Pre-emergence effect on weeds (greenhouse pot test, visual scoring). Format: in vivo, monocotyledonous and dicotyledonous weed plants. To be noted: application rate of 0.3 kg and less of active substance per hectar, scored visually after 3 to 4 weeks by comparison with untreated controls. An excerpt: 1. Pre-Emergence Effect on Weeds
Seeds or rhizome pieces of monocotyledonous and dicotyledonous weed plants were placed in sandy loam soil in cardboard pots and covered with soil. The compounds according to the invention which were formulated in the form of wettable powders or emulsion concentrates were then applied to the surface of the soil cover in the form of aqueous suspensions or emulsions at an application rate of 600 to 800 l of water/ha (converted), in various dosages.
After the treatment, the pots were placed in a greenhouse and kept under good growth conditions for the weeds. After the test plants had emerged, the damage to the plants or the negative effect on the emergence was scored visually after a test period of 3 to 4 weeks by comparison with untreated controls. As shown by the test results, compounds according to the invention have good herbicidal pre-emergence activity against a broad spectrum of weed grasses and broad-leafed weeds.

Assay [2] relates to harmful plants such as Sinapis alba, Echinochloa crus-galli, Lolium multiflorum, Chrysanthemum segetum, Setaria spp., Abutilon theophrasti, Amaranthus …. The assay is described as follows: Post-emergence effect on weeds (greenhouse pot test, visual scoring). In kind it is in vivo, monocotyledonous and dicotyledonous weeds. The settings on record: three-leaf stage, application rate of 0.3 kg and less of active substance per hectare, scored visually after about 3 to 4 weeks by comparison with untreated controls. As for the experimental part:
2. Post-Emergence Effect on Weeds
Seeds or rhizome pieces of monocotyledonous and dicotyledonous weeds were placed in sandy loam soil in plastic pots, covered with soil and grown in a greenhouse under good growth conditions. Three weeks after sowing, the test plants were treated at the three-leaf stage. The compounds according to the invention which were formulated as wettable powders or emulsion concentrates were sprayed, at various dosages, onto the green parts of the plants at an application rate of 600 to 800 l of water/ha (converted). After the test plants had remained in the greenhouse for about 3 to 4 weeks under ideal growth conditions, the effect of the preparations was scored visually by comparison with untreated controls. The agents according to the invention also have good herbicidal activity post-emergence against a broad spectrum of economically important Weed grasses and broad-loafed weeds.

On to `CCOC(=O)c1c(N)cccc1S(=O)(=O)NC(=O)Nc1nc(C)nc(OC)n1` [Example 1-47], for which, in assay [1], the “herbicidal activity against harmful plants, pre-emergence” value (shortened to “herbicidal activity … pre-emergence”) is “very good herbicidal activity”. Besides, the “herbicidal activity against harmful plants, post-emergence” value (from here on “herbicidal activity … post-emergence”) in assay [2] was “very good herbicidal activity”.

For `COC(=O)c1c(NCc2ccccc2)cccc1S(=O)(=O)NC(=O)Nc1nc(OC)cc(OC)n1` [Example 1-381], the “herbicidal activity … pre-emergence” value in assay [1] is on record as “very good herbicidal activity”. The “herbicidal activity … post-emergence” value in assay [2] was “very good herbicidal activity”.

As for `COC(=O)c1c(NCCCC(F)(F)F)cccc1S(=O)(=O)NC(=O)Nc1nc(OC)cc(OC)n1` [Example 1-241], the “herbicidal activity … pre-emergence” value in assay [1] was “very good herbicidal activity”. Further, the “herbicidal activity … post-emergence” value in assay [2] is recorded as “very good herbicidal activity”.

Consider `CCC(C)Nc1cccc(S(=O)(=O)NC(=O)Nc2nc(OC)cc(OC)n2)c1C(=O)OC` (stereo not shown) [Example 1-265], for which, in assay [1], the “herbicidal activity … pre-emergence” value was “very good herbicidal activity”. Also, in assay [2], the “herbicidal activity … post-emergence” value was “very good herbicidal activity”.

For the compound `COC(=O)c1c(NCC(C)C)cccc1S(=O)(=O)NC(=O)Nc1nc(OC)cc(OC)n1` [Example 1-177], in assay [1], the “herbicidal activity … pre-emergence” value is “very good herbicidal activity”. Further, the “herbicidal activity … post-emergence” value in assay [2] is “very good herbicidal activity”.

As to `COC(=O)c1c(N)cccc1S(=O)(=O)NC(=O)Nc1nc(C)nc(OC)n1` [Example 1-15], the “herbicidal activity … pre-emergence” value in assay [1] is given as “very good herbicidal activity”. In addition, the “herbicidal activity … post-emergence” value in assay [2] was “very good herbicidal activity”.

Regarding `CCOC(=O)c1c(N)cccc1S(=O)(=O)NC(=O)Nc1nc(OC)nc(OC)n1` [Example 1-57], in assay [1], the “herbicidal activity … pre-emergence” value is on record as “very good herbicidal activity”. In addition, in assay [2], the “herbicidal activity … post-emergence” value was “very good herbicidal activity”.

For the compound `COC(=O)c1c(NC(C)C)cccc1S(=O)(=O)NC(=O)Nc1nc(C)nc(OC)n1` [Example 1-155], the “herbicidal activity … pre-emergence” value in assay [1] was “very good herbicidal activity”. For the same compound, in assay [2], the “herbicidal activity … post-emergence” value is reported as “very good herbicidal activity”.

Regarding `COC(=O)c1c(N)cccc1S(=O)(=O)[N-]C(=O)Nc1nc(C)nc(OC)n1.[Na+]` [Example 1-16], in assay [1], the “herbicidal activity … pre-emergence” value is “very good herbicidal activity”. Also, the “herbicidal activity … post-emergence” value in assay [2] is reported as “very good herbicidal activity”.

In the case of `CCN(CC)c1cccc(S(=O)(=O)NC(=O)Nc2nc(OC)cc(OC)n2)c1C(=O)OC` [Example 1-417], the “herbicidal activity … pre-emergence” value in assay [1] is given as “very good herbicidal activity”. Further, the “herbicidal activity … post-emergence” value in assay [2] is on record as “very good herbicidal activity”.

As for `COC(=O)c1c(N(CC(C)C)CC(C)C)cccc1S(=O)(=O)[N-]C(=O)Nc1nc(OC)cc(OC)n1.[Na+]` [Example 1-426], the “herbicidal activity … pre-emergence” value in assay [1] is given as “very good herbicidal activity”. Also, the “herbicidal activity … post-emergence” value in assay [2] is reported as “very good herbicidal activity”.

For the compound `COC(=O)c1c(NC(C)C)cccc1S(=O)(=O)NC(=O)Nc1nc(OC)cc(OC)n1` [Example 1-153], the “herbicidal activity … pre-emergence” value in assay [1] is reported as “very good herbicidal activity”. In addition, the “herbicidal activity … post-emergence” value in assay [2] was “very good herbicidal activity”.

For the compound `CCNc1cccc(S(=O)(=O)NC(=O)Nc2nc(OC)cc(OC)n2)c1C(=O)OC` [Example 1-129], in assay [1], the “herbicidal activity … pre-emergence” value is “very good herbicidal activity”. In assay [2], the “herbicidal activity … post-emergence” value was “very good herbicidal activity”.

For `COC(=O)c1c(N)cccc1S(=O)(=O)NC(=O)Nc1nc(OC)nc(OC)n1` [Example 1-25], the “herbicidal activity … pre-emergence” value in assay [1] was “very good herbicidal activity”. Moreover, in assay [2], the “herbicidal activity … post-emergence” value was “very good herbicidal activity”.

In the case of `COC(=O)c1c(N)cccc1S(=O)(=O)NC(=O)Nc1nc(OC)cc(OC)n1` [Example 1-11], the “herbicidal activity … pre-emergence” value in assay [1] is reported as “very good herbicidal activity”. For the same compound, the “herbicidal activity … post-emergence” value in assay [2] is “very good herbicidal activity”.

For the compound `COC(=O)c1c(N)cccc1S(=O)(=O)[N-]C(=O)Nc1nc(OC)nc(OC)n1.[Na+]` [Example 1-26], the “herbicidal activity … pre-emergence” value in assay [1] is “very good herbicidal activity”. Besides, the “herbicidal activity … post-emergence” value in assay [2] was “very good herbicidal activity”.

In the case of `COC(=O)c1c(NCCCC(F)(F)F)cccc1S(=O)(=O)NC(=O)Nc1nc(C)nc(OC)n1` [Example 1-243], the “herbicidal activity … pre-emergence” value in assay [1] is “very good herbicidal activity”. In addition, in assay [2], the “herbicidal activity … post-emergence” value is recorded as “very good herbicidal activity”.

For the compound `COC(=O)c1c(NC(C)C)cccc1S(=O)(=O)NC(=O)Nc1nc(OC)nc(OC)n1` [Example 1-159], the “herbicidal activity … pre-emergence” value in assay [1] is “very good herbicidal activity”. Further, the “herbicidal activity … post-emergence” value in assay [2] was “very good herbicidal activity”.

On to `COC(=O)c1c(N)cccc1S(=O)(=O)NC(=O)Nc1nc(OC(F)F)cc(OC(F)F)n1` [Example 1-41], for which, in assay [1], the “herbicidal activity … pre-emergence” value was “very good herbicidal activity”. The “herbicidal activity … post-emergence” value in assay [2] was “very good herbicidal activity”.

Regarding `CCOC(=O)c1c(NCC(C)C)cccc1S(=O)(=O)NC(=O)Nc1nc(Cl)cc(OC)n1` [Example 1-189], the “herbicidal activity … pre-emergence” value in assay [1] is listed as “very good herbicidal activity”. Besides, the “herbicidal activity … post-emergence” value in assay [2] is recorded as “very good herbicidal activity”.

On to `CCNc1cccc(S(=O)(=O)NC(=O)Nc2nc(OC)nc(OC)n2)c1C(=O)OC` [Example 1-135], for which the “herbicidal activity … pre-emergence” value in assay [1] is “very good herbicidal activity”. In addition, in assay [2], the “herbicidal activity … post-emergence” value is “very good herbicidal activity”.

In the case of `COC(=O)c1c(N(CC(C)C)CC(C)C)cccc1S(=O)(=O)NC(=O)Nc1nc(OC)cc(OC)n1` [Example 1-425], the “herbicidal activity … pre-emergence” value in assay [1] was “very good herbicidal activity”. Also, the “herbicidal activity … post-emergence” value in assay [2] is listed as “very good herbicidal activity”.

For `CCOC(=O)c1c(N)cccc1S(=O)(=O)NC(=O)Nc1nc(Cl)cc(OC)n1` [Example 1-55], in assay [1], the “herbicidal activity … pre-emergence” value is listed as “very good herbicidal activity”. The “herbicidal activity … post-emergence” value in assay [2] was “very good herbicidal activity”.

As for `COC(=O)c1c(NC(C)C)cccc1S(=O)(=O)[N-]C(=O)Nc1nc(OC)cc(OC)n1.[Na+]` [Example 1-154], the “herbicidal activity … pre-emergence” value in assay [1] was “very good herbicidal activity”. For the same compound, in assay [2], the “herbicidal activity … post-emergence” value is on record as “very good herbicidal activity”.

In the case of `COc1nc(NC(=O)NS(=O)(=O)c2cccc(N)c2C(=O)O)nc(OC)n1` [Example 1-9], in assay [1], the “herbicidal activity … pre-emergence” value was “very good herbicidal activity”. Also, the “herbicidal activity … post-emergence” value in assay [2] is recorded as “very good herbicidal activity”.

Regarding `COC(=O)c1c(N)cccc1S(=O)(=O)NC(=O)Nc1nc(Cl)cc(OC)n1` [Example 1-23], in assay [1], the “herbicidal activity … pre-emergence” value is “very good herbicidal activity”. In addition, the “herbicidal activity … post-emergence” value in assay [2] was “very good herbicidal activity”.

As for `CCC(C)Nc1cccc(S(=O)(=O)NC(=O)Nc2nc(C)nc(OC)n2)c1C(=O)OC` (stereo not shown) [Example 1-267], the “herbicidal activity … pre-emergence” value in assay [1] was “very good herbicidal activity”. Besides, the “herbicidal activity … post-emergence” value in assay [2] was “very good herbicidal activity”.

As to `CCNc1cccc(S(=O)(=O)NC(=O)Nc2nc(C)nc(OC)n2)c1C(=O)OC` [Example 1-131], the “herbicidal activity … pre-emergence” value in assay [1] is listed as “very good herbicidal activity”. Also, the “herbicidal activity … post-emergence” value in assay [2] is listed as “very good herbicidal activity”.

Take `COC(=O)c1c(NC2CC2)cccc1S(=O)(=O)NC(=O)Nc1nc(C)nc(OC)n1` [Example 1-355]: in assay [1], the “herbicidal activity … pre-emergence” value was “very good herbicidal activity”. Moreover, in assay [2], the “herbicidal activity … post-emergence” value is reported as “very good herbicidal activity”.

Turning to `COC(=O)c1c(NCCCC(F)(F)F)cccc1S(=O)(=O)NC(=O)Nc1nc(OC)nc(OC)n1` [Example 1-247], the “herbicidal activity … pre-emergence” value in assay [1] is listed as “very good herbicidal activity”. For the same compound, in assay [2], the “herbicidal activity … post-emergence” value is given as “very good herbicidal activity”.

Turning to `COC(=O)c1c(N(C)C)cccc1S(=O)(=O)NC(=O)Nc1nc(OC)cc(OC)n1` [Example 1-401], in assay [1], the “herbicidal activity … pre-emergence” value was “very good herbicidal activity”. Further, the “herbicidal activity … post-emergence” value in assay [2] is “very good herbicidal activity”.

As for `CCOC(=O)c1c(N)cccc1S(=O)(=O)NC(=O)Nc1nc(OC)cc(OC)n1` [Example 1-45], in assay [1], the “herbicidal activity … pre-emergence” value is on record as “very good herbicidal activity”. Besides, the “herbicidal activity … post-emergence” value in assay [2] was “very good herbicidal activity”.

These data come from US20060014644A1, “Phenylsulfonyl ureas, process for their preparation and their use as herbicides and plant growth regulators” (Hoechst Schering AgrEvo GmbH, priority 1999, published 2006).
